The EC50 is the midpoint of the concentration-response curve. Usually CC50 stands for the concentration that lowers cell viability or growth by half.

In data set [1] the test system is HCV Con1 subgenomic replicon. The data set can be described thus: HCV replicon assay (NS4A ELISA). The class given is cell-based. The note with it: Hepatitis C virus. The protocol: (§1) Huh-7 cells containing HCV Con1 subgenomic replicon (GS4.1 cells), (C. Seeger; Fox Chase University, Philadelphia, Pa., USA), are grown in Dulbecco's Modified Eagle Medium (DMEM) supplemented with 10% fetal bovine serum (FBS), 2 mM L-glutamine, 110 mg/L sodium pyruvate, 1× non-essential amino acids, 100 U/mL penicillin-streptomycin and 0.5 mg/mL G418 (Invitrogen). For dose-response testing, the cells are seeded in 96-well plates at 7.5×10^3 cells/well in a volume of 50 μL and incubated at 37° C./5% CO2. Three hours after plating, 50 μL of ten 2-fold serial dilutions of compounds (highest concentration, 75 μM) are added and cell cultures were incubated at 37° C./5% CO2 in the presence of 0.5% DMSO. Alternatively, compounds are tested at a single concentration of 15 μM. In all cases, Huh-7 cells lacking the HCV replicon served as negative control. The cells are incubated in the presence of compounds for 72 hours after which they were monitored for expression of the NS4A protein by enzyme-linked immunosorbent assay (ELISA). For this, the plates were then fixed for 1 min with 1:1 acetone:methanol, washed twice with phosphate-buffered saline (PBS), 0.1% Tween 20, blocked for 1 hour at room temperature with TNE buffer containing 10% FBS and then incubated for 2 h at 37° C. with the anti-NS4A mouse monoclonal antibody A-236 (ViroGen) diluted in the same buffer. After washing three times with PBS, 0.1% Tween 20, the cells are incubated 1 hour at 37° C. with anti-mouse immunoglobulin G-peroxidase conjugate in TNE, 10% FBS. After washing as described above, the reaction is developed with O-phenylenediamine (Zymed). The reaction is stopped after 30 minutes with […] and the absorbance is read at 492 nm using a Sunrise Tecan spectrophotometer. EC50 values are determined from the % inhibition versus concentration data using a sigmoidal non-linear regression analysis based on four parameters with Tecan Magellan software. When screening at a single concentration, the results are expressed as % inhibition at 15 μM. For cytotoxicity evaluation, GS4.1 cells are treated with compounds as described above and cellular viability was monitored using a Cell Titer 96 AQueous One Solution Cell Proliferation Assay (Promega). CC50 values are determined from the % cytotoxicity versus concentration data with Tecan Magellan software as described above.
Compounds presented in the table below were assayed according to the replicon assay described above.
(In general: A replicon is a self-replicating genome or part of one, used to study replication in cells.)

Data set [2] in a line: Cytotoxicity evaluation (Cell Titer 96 AQueous One Solution Cell Proliferation Assay). The note with it: human, GS4.1 cells, cellular viability, read-out: HCV Replicon CC50. The data set is classed as cell-based. As to the method:
as §1

Where [3] appears, read: ELISA 2 assay, Huh-7 cells containing HCV Con1 subgenomic replicon (GS4.1 cells), 72 hours, NS4A expression, read-out: HCV Replicon EC50.
Setting [4] is: Huh-7, 72 h, read-out: HCV Replicon EC50 (μM).

Like-named read-outs stand apart in the source and are kept apart here.

`C[C@@]1(O)[C@H](O)[C@@H](CO)O[C@H]1n1cnc2c(=O)[nH]c(N)nc21` [2′-C-methylguanosine, reference compound]: the EC50 in data set [1] (setting [3]) lay in the range of 1 to 10 µM. In data set [2], the CC50 at 72 h was > 75 µM.

In the case of `COC(=O)C(CC(C)C)NP(=O)(NC(CC(C)C)C(=O)OC)OC[C@H]1O[C@@H](n2cnc3c(OC)nc(N)nc32)C(C)(O)C1O` (stereo partly drawn) [Compound 3], the concentration for a half-maximal effect (EC50) in data set [1] (setting [3]) was < 1 µM. Besides, in data set [2], the CC50 at 72 h is > 75 µM.

Turning to `COC(=O)C(CC(C)C)NP(=O)(NC(CC(C)C)C(=O)OC)OC[C@H]1O[C@@H](n2cnc3c(OC)nc(N)nc32)[C@@]2(C)OC(=O)OC12` (stereo partly drawn) [Compound 4], in data set [1] (setting [3]), the EC50 was < 1 µM. Besides, the CC50 at 72 h in data set [2] was > 75 µM.

As to `CCOC(=O)C(CC(C)C)NP(=O)(NC(CC(C)C)C(=O)OCC)OC[C@H]1O[C@@H](n2cnc3c(NC4CC4)nc(N)nc32)C(C)(O)C1O` (stereo partly drawn) [Compound 6], the EC50 in data set [1] (setting [3]) was < 1 µM. For the same compound, the CC50 at 72 h in data set [2] was > 75 µM.

Turning to `COC(=O)C(CC(C)C)NP(=O)(NC(CC(C)C)C(=O)OC)OC[C@H]1O[C@@H](n2cnc3c(NC4CC4)nc(N)nc32)C(C)(O)C1O` (stereo partly drawn) [Compound 8], the EC50 in data set [1] (setting [3]) is < 1 µM. The CC50 at 72 h in data set [2] was > 75 µM.

For `COC(=O)C(CC(C)C)NP(=O)(NC(CC(C)C)C(=O)OC)OC[C@H]1O[C@@H](n2cnc3c(=O)[nH]c(N)nc32)C(C)(O)C1O` (stereo partly drawn) [Compound 9], in data set [1] (setting [4]), the EC50 was in the range of 1 to 10 µM. Also, in data set [2], the CC50 at 72 h was > 75 µM.

As for `C#CC1(F)C(O)[C@@H](COP(=O)(NCC(=O)OCC)NCC(=O)OCC)O[C@H]1n1cnc2c(=O)[nH]c(N)nc21` (stereo partly drawn) [Compound 48], in data set [1] (setting [4]), the EC50 was > 10 µM. Further, the CC50 at 72 h in data set [2] is > 75 µM.

Take `CCOC(=O)CNP(=O)(NCC(=O)OCC)OC[C@H]1O[C@@H](n2cnc3c(=O)[nH]c(N)nc32)C(C)(O)C1O` (stereo partly drawn) [Compound 54]: the EC50 in data set [1] (setting [4]) was in the range of 1 to 10 µM. Further, the CC50 at 72 h in data set [2] is > 75 µM.

For the compound `C#C[C@@]1(F)[C@H](O)[C@@H](CO)O[C@H]1n1cnc2c(=O)[nH]c(N)nc21` [reference compound], the EC50 in data set [1] (setting [3]) was > 10 µM. Besides, the CC50 at 72 h in data set [2] was > 75 µM.

Values taken from patent US8680071B2 (Idenix Pharmaceuticals, Inc., priority 2010, dated 2014).
